Legend:
[1] = biological target: T1, Aster-B GRAM domain (Mus musculus, UniProt Q80TI0); assay: liposome co-sedimentation assay; assay type: binding; conditions: sucrose-loaded heavy liposomes, 80-85% PC or PS
T1 construct: B GRAM (Aster-B1-337) was conducted using PIP Strips (Echelon Biosciences); made in house; host or cells: Sf9 insect cells
T1 sequence (Q80TI0 41-377 limits assumed): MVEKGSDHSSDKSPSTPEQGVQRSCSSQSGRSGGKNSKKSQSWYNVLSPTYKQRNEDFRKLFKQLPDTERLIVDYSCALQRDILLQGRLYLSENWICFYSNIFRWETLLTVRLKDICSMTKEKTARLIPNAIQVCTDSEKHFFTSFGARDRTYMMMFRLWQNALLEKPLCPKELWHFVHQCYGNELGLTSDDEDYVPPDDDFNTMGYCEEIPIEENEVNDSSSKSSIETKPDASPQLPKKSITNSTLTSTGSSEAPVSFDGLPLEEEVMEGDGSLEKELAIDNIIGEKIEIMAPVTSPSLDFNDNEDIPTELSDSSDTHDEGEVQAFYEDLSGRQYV
Protocol: FIG. 9A: Protein-lipid overlay over purified mouse Aster-B GRAM domain with various phospholipid species. PA and PS correspond to phosphatidic acid and phosphatidylserine, respectively. FIG. 9A discloses “6xHis” as SEQ ID NO: 11. FIG. 9B: Purified Aster-B GRAM domain was incubated with sucrose-loaded heavy liposomes containing Dansyl-PE and 80-85% PC or 80-85% PS+/−5% Cholesterol. Liposomes were sedimented, washed, and analyzed by immunoblotting for associated Aster-B Gram protein (anti-His antibody). FIG. 9C: Localization of full-length and B ΔGRAM Aster-B-GFP constructs with plasma membrane (CellMask stain) expressed in HeLa cells in the presence or absence of cholesterol loading imaged by live cell confocal microscopy. […] FIG. 9E: Quantification of Aster-B PH-EGFP intensity in the TIRF plane upon cholesterol loading (left panel; n=2-3 cells, error bars+/−SD). […] TIRF videos recorded 5 slices (slices 3-5 were used to calculate FO) before cholesterol addition.
(§1) The Aster proteins contain an N-terminal GRAM domain, a structural motif related to the pleckstrin homology domain that is found in glucosyltransferases, Rab-like GTPase activators, myotubularins, and other membrane-associated proteins. […] Given that phosphatidylserine is highly enriched in the inner leaflet of the PM, it was further determined if the Aster-B GRAM domain was associated with phosphatidylserine-containing liposomes.

[2] = biological target: T1, Aster-B GRAM domain; assay: protein-lipid overlay (PIP Strips); assay type: binding; conditions: lipid strip, 100 pmol lipid per spot
Protocol: FIG. 9A: Protein-lipid overlay over purified mouse Aster-B GRAM domain with various phospholipid species. PA and PS correspond to phosphatidic acid and phosphatidylserine, respectively. FIG. 9A discloses “6xHis” as SEQ ID NO: 11. FIG. 9B: Purified Aster-B GRAM domain was incubated with sucrose-loaded heavy liposomes containing Dansyl-PE and 80-85% PC or 80-85% PS+/−5% Cholesterol. Liposomes were sedimented, washed, and analyzed by immunoblotting for associated Aster-B Gram protein (anti-His antibody). FIG. 9C: Localization of full-length and B ΔGRAM Aster-B-GFP constructs with plasma membrane (CellMask stain) expressed in HeLa cells in the presence or absence of cholesterol loading imaged by live cell confocal microscopy. […] FIG. 9E: Quantification of Aster-B PH-EGFP intensity in the TIRF plane upon cholesterol loading (left panel; n=2-3 cells, error bars+/−SD). […] TIRF videos recorded 5 slices (slices 3-5 were used to calculate FO) before cholesterol addition. […]
as §1

co-sedimentation of GRAM domain with liposomes [1]: pelleted with
interaction with purified Aster-B GRAM domain [2]: interacted strongly
Substance: phosphatidylserine [phosphatidylserine (PS)]

Source: patent publication US20210255205A1, “COMPOSITIONS AND METHODS FOR TREATING METABOLIC DISEASE” (THE REGENTS OF THE UNIVERSITY OF CALIFORNIA, priority 2018, published 2021)
